Species on record: Rattus norvegicus
Experiment: DrugMatrix - Regimen: Daily Repeat
Type: toxicity, organism-based, Sprague-Dawley
Design: regimen Daily Repeat, gender Male, age 6-8 weeks
Settings: in vivo, po, 50 mg/kg, route oral GAVAGE, dose level Low, […]; for ABSOLUTE BASOPHIL / ABSOLUTE EOSINOPHIL / ABSOLUTE LYMPHOCYTE / ABSOLUTE MONOCYTE / ABSOLUTE SEGMENTED NEUTROPHIL / BASOPHIL / EOSINOPHIL / ERYTHROCYTE COUNT / HEMATOCRIT / HEMOGLOBIN / LEUKOCYTE COUNT / LYMPHOCYTE / MEAN CORPUSCULAR HEMOGLOBIN / MEAN CORPUSCULAR HEMOGLOBIN CONCENTRATION / MEAN CORPUSCULAR VOLUME / MONOCYTE / NEUTROPHIL / NUCLEATED RED BLOOD CELLS / PLATELET COUNT: tissue Blood; for ALANINE AMINOTRANSFERASE / ALBUMIN / ALKALINE PHOSPHATASE / ASPARTATE AMINOTRANSFERASE / BLOOD UREA NITROGEN / CARBON DIOXIDE / CHLORIDE / CHOLESTEROL / CREATINE PHOSPHOKINASE / CREATININE / GLUCOSE / LACTATE DEHYDROGENASE / LIPASE / PHOSPHORUS / POTASSIUM / SODIUM / TOTAL BILIRUBIN / TOTAL PROTEIN / URIC ACID: tissue Plasma

COC(=O)Nc1nc2ccc(Sc3ccccc3)cc2[nH]1 [FENBENDAZOLE]
ABSOLUTE BASOPHIL (72 h, time 3 day): 0 CELLS/uL | ABSOLUTE EOSINOPHIL (72 h, time 3 day): 0 CELLS/uL | ABSOLUTE LYMPHOCYTE (72 h, time 3 day): 13096 CELLS/uL | ABSOLUTE MONOCYTE (72 h, time 3 day): 168.67 CELLS/uL | ABSOLUTE SEGMENTED NEUTROPHIL (72 h, time 3 day): 1268.67 CELLS/uL | BASOPHIL (72 h, time 3 day): 0% | EOSINOPHIL (72 h, time 3 day): 0% | ERYTHROCYTE COUNT (72 h, time 3 day): 5.64 x10E6/uL | HEMATOCRIT (72 h, time 3 day): 35.13% | HEMOGLOBIN (72 h, time 3 day): 13.37 G/DL | LEUKOCYTE COUNT (72 h, time 3 day): 14.53 x10E3/uL | LYMPHOCYTE (72 h, time 3 day): 90.33% | MEAN CORPUSCULAR HEMOGLOBIN (72 h, time 3 day): 23.7 pg | MEAN CORPUSCULAR HEMOGLOBIN CONCENTRATION (72 h, time 3 day): 38.07 G/DL | MEAN CORPUSCULAR VOLUME (72 h, time 3 day): 62.37 fL | MONOCYTE (72 h, time 3 day): 1% | NEUTROPHIL (72 h, time 3 day): 8.67% | NUCLEATED RED BLOOD CELLS (72 h, time 3 day): 0 /100WBC | PLATELET COUNT (72 h, time 3 day): 1087 x10E3/uL | ALANINE AMINOTRANSFERASE (72 h, time 3 day): 79 u/L | ALBUMIN (72 h, time 3 day): 4.07 G/DL | ALKALINE PHOSPHATASE (72 h, time 3 day): 536.67 u/L | ASPARTATE AMINOTRANSFERASE (72 h, time 3 day): 137.67 u/L | BLOOD UREA NITROGEN (72 h, time 3 day): 15 mg/dL | CARBON DIOXIDE (72 h, time 3 day): 27.33 mmol/L | CHLORIDE (72 h, time 3 day): 99.33 MEQ/L | CHOLESTEROL (72 h, time 3 day): 87.33 mg/dL | CREATINE PHOSPHOKINASE (72 h, time 3 day): 508.67 u/L | CREATININE (72 h, time 3 day): 0.16 mg/dL | GLUCOSE (72 h, time 3 day): 146.33 mg/dL | LACTATE DEHYDROGENASE (72 h, time 3 day): 359 u/L | LIPASE (72 h, time 3 day): 10.67 u/L | PHOSPHORUS (72 h, time 3 day): 13.07 mg/dL | POTASSIUM (72 h, time 3 day): 6.5 MEQ/L | SODIUM (72 h, time 3 day): 143.5 MEQ/L | TOTAL BILIRUBIN (72 h, time 3 day): 0.3 mg/dL | TOTAL PROTEIN (72 h, time 3 day): 5.6 G/DL | URIC ACID (72 h, time 3 day): 1.7 mg/dL | ABSOLUTE BASOPHIL (120 h, time 5 day): 0 CELLS/uL | ABSOLUTE EOSINOPHIL (120 h, time 5 day): 126 CELLS/uL | ABSOLUTE LYMPHOCYTE (120 h, time 5 day): 15732 CELLS/uL | ABSOLUTE MONOCYTE (120 h, time 5 day): 245.33 CELLS/uL | ABSOLUTE SEGMENTED NEUTROPHIL (120 h, time 5 day): 1830 CELLS/uL | BASOPHIL (120 h, time 5 day): 0% | EOSINOPHIL (120 h, time 5 day): 0.67% | ERYTHROCYTE COUNT (120 h, time 5 day): 6.25 x10E6/uL | HEMATOCRIT (120 h, time 5 day): 37.37% | HEMOGLOBIN (120 h, time 5 day): 14.73 G/DL | LEUKOCYTE COUNT (120 h, time 5 day): 17.93 x10E3/uL | LYMPHOCYTE (120 h, time 5 day): 88% | MEAN CORPUSCULAR HEMOGLOBIN (120 h, time 5 day): 23.57 pg | MEAN CORPUSCULAR HEMOGLOBIN CONCENTRATION (120 h, time 5 day): 39.43 G/DL | MEAN CORPUSCULAR VOLUME (120 h, time 5 day): 59.83 fL | MONOCYTE (120 h, time 5 day): 1.33% | NEUTROPHIL (120 h, time 5 day): 10% | NUCLEATED RED BLOOD CELLS (120 h, time 5 day): 0 /100WBC | PLATELET COUNT (120 h, time 5 day): 1051.67 x10E3/uL | ALANINE AMINOTRANSFERASE (120 h, time 5 day): 164.33 u/L | ALBUMIN (120 h, time 5 day): 4.1 G/DL | ALKALINE PHOSPHATASE (120 h, time 5 day): 601.67 u/L | ASPARTATE AMINOTRANSFERASE (120 h, time 5 day): 203.67 u/L | BLOOD UREA NITROGEN (120 h, time 5 day): 13.67 mg/dL | CARBON DIOXIDE (120 h, time 5 day): 26.33 mmol/L | CHLORIDE (120 h, time 5 day): 99.33 MEQ/L | CHOLESTEROL (120 h, time 5 day): 85.33 mg/dL | CREATINE PHOSPHOKINASE (120 h, time 5 day): 602.33 u/L | CREATININE (120 h, time 5 day): 0.19 mg/dL | GLUCOSE (120 h, time 5 day): 143.67 mg/dL | LACTATE DEHYDROGENASE (120 h, time 5 day): 615.33 u/L | LIPASE (120 h, time 5 day): 11 u/L | PHOSPHORUS (120 h, time 5 day): 11.27 mg/dL | POTASSIUM (120 h, time 5 day): 6.24 MEQ/L | SODIUM (120 h, time 5 day): 142.9 MEQ/L | TOTAL BILIRUBIN (120 h, time 5 day): 0.27 mg/dL | TOTAL PROTEIN (120 h, time 5 day): 5.6 G/DL | URIC ACID (120 h, time 5 day): 2.17 mg/dL
